Columns and labels:
[1] = target: T1, D-serine-sensitive Na+-independent transporter in rat cortical membranes (Rattus norvegicus, UniProt P63116); assay: Na+-independent [3H]D-serine uptake into rat cortical membranes (synaptosomes); assay type: biochemical
T1 construct: from tissue; host or cells: rat cerebral cortex membranes (P2 synaptosomes), male Wistar rats
T1 sequence (P63116 1-530): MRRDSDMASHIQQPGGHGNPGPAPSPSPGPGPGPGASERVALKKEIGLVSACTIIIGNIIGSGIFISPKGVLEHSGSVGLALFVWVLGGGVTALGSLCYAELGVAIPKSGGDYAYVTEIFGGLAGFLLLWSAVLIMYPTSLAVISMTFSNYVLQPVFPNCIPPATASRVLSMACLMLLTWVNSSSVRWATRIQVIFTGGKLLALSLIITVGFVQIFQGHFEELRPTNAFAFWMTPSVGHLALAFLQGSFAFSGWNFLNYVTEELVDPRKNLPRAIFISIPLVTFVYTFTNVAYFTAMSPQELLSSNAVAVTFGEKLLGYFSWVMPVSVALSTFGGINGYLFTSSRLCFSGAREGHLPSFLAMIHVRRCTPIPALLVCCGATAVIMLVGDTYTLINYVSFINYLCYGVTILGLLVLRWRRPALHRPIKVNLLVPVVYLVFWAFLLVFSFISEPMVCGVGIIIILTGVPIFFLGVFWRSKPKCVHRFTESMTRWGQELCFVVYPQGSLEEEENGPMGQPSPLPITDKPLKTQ
T1 sequence (Q794F9 1-527 partner): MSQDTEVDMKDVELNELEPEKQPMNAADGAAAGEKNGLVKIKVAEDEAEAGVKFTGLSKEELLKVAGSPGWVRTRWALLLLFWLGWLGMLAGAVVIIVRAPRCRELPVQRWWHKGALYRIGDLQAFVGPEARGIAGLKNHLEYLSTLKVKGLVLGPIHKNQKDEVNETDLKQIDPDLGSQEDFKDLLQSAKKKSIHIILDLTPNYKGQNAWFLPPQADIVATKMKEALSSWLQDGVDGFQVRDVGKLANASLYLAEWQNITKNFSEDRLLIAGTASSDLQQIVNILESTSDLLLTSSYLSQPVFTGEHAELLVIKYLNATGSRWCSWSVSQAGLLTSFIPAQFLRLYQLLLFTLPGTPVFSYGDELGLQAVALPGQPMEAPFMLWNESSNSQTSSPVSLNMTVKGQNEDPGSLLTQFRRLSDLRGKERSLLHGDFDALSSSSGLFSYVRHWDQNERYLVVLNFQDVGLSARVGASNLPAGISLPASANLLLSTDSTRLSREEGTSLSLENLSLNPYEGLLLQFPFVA
Protocol: Into cortical membranes: Cortex from male Wistar rats (150-200 g) was homogenized in 0.40 M sucrose and centrifuged at 1000×g for 10 min. […] Test compounds and tissue (1 mg orig. tissue/well) were added to 96 well plates and incubated with [^3H]-D-serine (specific activity=26.8 Ci/mmol, PerkinElmer, Cambridge, U.K.) (100 nM final concentration) for 5 min at 25° C. Samples were filtered on Unifilter GF/B glass fiber (Packard Biosciences, Meriden, Conn., USA) and washed with 3×0.25 mL assay buffer. Measurements of [^3H]-D-serine uptake into whole HEK293 cells expressing human asc-1 were performed in 96 well plates with similar conditions except that the cells were incubated for 15 min with radioligand and washed by dipping twice in cold assay buffer following incubation with radioligand. Accumulated radioactivity was extracted from the cells by adding 200 μL scintillation fluid/well (Ultima Gold, Packard Biosciences) and the plates were counted in a Microplates Scintillation Counter (Packard Biosciences). The D-serine uptake in samples containing test compounds was compared to controls without added compound or controls where transport via the asc-1 was inhibited by addition of e.g. 30 mM L-alanine.

[2] = tested on: rat brain (ventral hippocampus) extracellular amino acids; assay: Microdialysis in rat ventral hippocampus, amino acid levels in dialysate; assay type: in vivo; settings: 1 mM infused via microdialysis probe into ventral hippocampus, 140 min (FIG. 1)
Text: Rats (male wistar) were anaesthetized and intracerebral guide cannulas (CMA/12) were stereotaxically implanted into the brain positioning the dialysis probe tip in the ventral hippocampus (co-ordinates 5.6 mm […] to bregma, lateral −5.0 mm, 7.0 mm ventral to dura). The rats were allowed to recover from surgery for at least 2 days. On the day of the experiment, a microdialysis probe (CMA/12, 0.5 mm diameter, 3 mm length) was inserted through the guide cannula. The probes were connected via a dual channel swivel to a microinjection pump. Perfusion of the microdialysis probe with filtered Ringer solution (145 mM NaCl, 3 mM KCl, 1 mM MgCl2, 1.2 mM CaCl2) was begun shortly before insertion of the probe into the brain and continued for the duration of the experiment at a constant flow of 1 μl/min. After 165 min of stabilization, the experiments were initiated. A 20 min sampling regime was used throughout the experimental period. Time points were corrected for lag time of the perfusate from the microdialysis site to the probe outlet. The compound, S-methyl-L-cysteine (Sigma-Aldrich, St. Louis, USA) was dissolved in filtered Ringer solution (in 1 mM concentration) and was locally infused into the ventral hippocampus by reverse dialysis for 140 min (FIG. 1). After the experiments, the rats were sacrificed by decapitation. The brains were removed, frozen and sectioned (20 μm), and the position of the probes was verified. The concentrations of amino acids in the dialysates were analyzed by means of HPLC with fluorescence detection after precolumn online derivatisation with o-phatalaldehyde. The system consisted of a Hypersil AA-ODS column (5 μm, 2.1×200 mm, Agilent) with a Agilent 1100 fluoresence detector (excitation, 266-340 nm; emission, 305-340 nm). Mobile phases consisted of A: 20 mM sodium acetate, 0.018% triethylamine, 0.3% tetrahydrofuran, pH 7.2. B: 20 mM sodium acetate, 40% acetonitrile and 40% methanol, pH 7.2. The oven temperature was set at 40° C. and flow rate was 0.45 ml/min. Data were collected and analysed using ChemStation software (Agilent) after calibration with a range of standard amino acid solutions (0.1-10 μM). The mean value of 3 consecutive samples immediately preceding compound administration served as the basal level for each experiment and data were converted to percentage of basal (mean basal pre-injection values normalized to 100%).

System A transporters = settings: at 5 mM; cultured rat hepatocytes; cited from earlier work

SMILES: CSCC(N)C(=O)O (stereo in doubt) [(S)-methyl-L-cysteine]
- Ki [1]: 6.6 ± 1.8 µM
- level of alanine in rat brain dialysate [2]: marked increase
- level of aspartate in rat brain dialysate [2]: not affected
- level of glutamate in rat brain dialysate [2]: not affected
- level of glycine in rat brain dialysate [2]: marked increase
- level of serine in rat brain dialysate [2]: marked increase
- level of threonine in rat brain dialysate [2]: marked increase
- inhibition of System A transporters ([3H]AIB transport) (System A transporters): 81%

From patent US20050176826A1, “Use of asc-1 inhibitors to treat neurological and psychiatric disorders” (H. Lundbeck A/S, priority 2002, published 2005)
